Test results from patent publication US9676719B2, “Phenyl derivative” (ONO PHARMACEUTICAL CO., LTD., priority 2013, dated 2017).
Converted amounts (≈) assume the structure as drawn.

Legend:
Solubility measurement = type: physicochemical; details: aqueous buffer, kinetic from dmso stock; second solution of Japanese Pharmacopoeia (pH 6.8), room temperature, stirring 5 hours, LC-MS/MS
Method: A solution for obtaining a calibration curve was prepared by diluting a test substance (10 mmol/L, DMSO solution) in acetonitrile and adding acetonitrile containing an internal standard substance (warfarin) to adjust to 0.1, 0.4 and 2 μmol/L. A sample solution was prepared by adding to 495 μL (pH 6.8) of the second solution defined in Japanese Pharmacopoeia (a solution used was obtained by adding water to 250 mL of a 0.2 mol/L potassium dihydrogen phosphate reagent solution and 118 mL of a 0.2 mol/L sodium hydroxide reagent solution to adjust to 1000 mL) 5 μL of a test substance (10 mmol/L, DMSO solution), stirring at room temperature for 5 hours, transferring the obtained solution to a plate with a filter for vacuum filtration, diluting 20 μL of the filtrate with acetonitrile and adding acetonitrile containing the internal standard. The solution for obtaining a calibration curve and the sample solution (5 μL each) were injected to LC-MS/MS (Discovery Max from Thermo Scientific) for quantification (quantification range: 0.1 to 2 μmol/L). The solubility was calculated by multiplying the quantified value by 50. When the quantified value was outside of the quantification range, the solubility was expressed as <5 μmol/L or 100 μmol/L.

rat S1P2 (EDG-5) = biological target: T1, rat S1P2 (EDG-5) (Rattus norvegicus, UniProt P47752); experiment: S1P2 (EDG-5) antagonistic activity by monitoring the change in intracellular calcium ion concentration (rat); type: cell-based; details: CHO cells overexpressing rat S1P2 (EDG-5) gene; suppression of S1P (30 or 300 nM)-induced intracellular calcium increase, Fura2-AM
T1 construct: expressed in transfected cells; host or cells: CHO cells (blasticidin S selection)
Method: (§1) Chinese hamster ovary (CHO) cells overexpressing the human S1P2 (EDG-5) gene were cultured in a Ham's F12 medium containing 10% fetal bovine serum (FBS), an antibiotic/antifungal agent and G418. CHO cells overexpressing the rat S1P2 (EDG-5) gene were cultured in a Ham's F12 medium containing 10% FBS, penicillin/streptomycin and blasticidin S. The cultured cells were incubated in a Fura2-AM solution (5 μM) [a Ham's F12 medium containing FBS (10%), HEPES buffer (20 mM, pH 7.2 to 7.5) and probenecid (2.5 mM)] at 37° C. for 60 minutes. The cells were washed twice with a Hanks' balanced saline containing HEPES buffer (20 mM, pH 7.2 to 7.5) and probenecid (2.5 mM) and immersed in the same solution. A plate was mounted on a fluorescence-based drug screening system and the intracellular calcium ion concentration was measured for 30 seconds without stimulation. A test substance (the final concentration of human S1P2: 0.25 nM to 25 μM and the final concentration of rat S1P2: 0.25 nM to 2.5 μM) or a dimethyl sulphoxide (DMSO) solution was added and after 3 minutes S1P (final concentration: 30 or 300 nM) was added and the increase in the intracellular calcium ion concentration before and after the addition of S1P was measured with an interval of 3 seconds (excitation wavelength: 340 nm and 380 nm, fluorescence wavelength: 540 nm).
(§2) The S1P2 (EDG-5) antagonistic activity was calculated as a suppression (%) from the following formula, wherein A is a control value which was a peak value after addition of S1P (final concentration: 30 or 300 nM) in the wells added with DMSO without a test substance and B is an increased amount after addition of S1P in the cells treated with the test substance: [M 1] Suppression (%)=[(A−B)/A]×100
(§3) Comparative compounds used were the compounds disclosed in Example 1 (64) (hereinafter referred to as comparative compound A) and Example 1 (85) (hereinafter referred to as comparative compound B) in Patent Document 3 (WO 2004/002531). The structural formulae of the comparative compounds are shown below respectively.

human S1P2 (EDG-5) = biological target: T2, human S1P2 (EDG-5) (Homo sapiens, UniProt O95136); experiment: S1P2 (EDG-5) antagonistic activity by monitoring the change in intracellular calcium ion concentration (human); type: cell-based; details: CHO cells overexpressing human S1P2 (EDG-5) gene; suppression of S1P (30 or 300 nM)-induced intracellular calcium increase, Fura2-AM
T2 construct: expressed in transfected cells; host or cells: CHO cells (G418 selection)
Method: as §1, §2, §3

T1 sequence (P47752 whole entry): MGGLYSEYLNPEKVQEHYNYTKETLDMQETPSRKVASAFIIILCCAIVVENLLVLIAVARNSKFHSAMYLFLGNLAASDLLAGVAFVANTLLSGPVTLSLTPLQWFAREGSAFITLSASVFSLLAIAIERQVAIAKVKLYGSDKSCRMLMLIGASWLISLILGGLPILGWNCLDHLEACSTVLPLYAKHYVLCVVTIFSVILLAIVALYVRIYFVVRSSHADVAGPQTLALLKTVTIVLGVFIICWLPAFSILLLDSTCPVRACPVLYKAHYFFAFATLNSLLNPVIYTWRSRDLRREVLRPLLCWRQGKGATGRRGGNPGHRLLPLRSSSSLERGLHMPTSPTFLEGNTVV
T2 sequence (O95136 whole entry): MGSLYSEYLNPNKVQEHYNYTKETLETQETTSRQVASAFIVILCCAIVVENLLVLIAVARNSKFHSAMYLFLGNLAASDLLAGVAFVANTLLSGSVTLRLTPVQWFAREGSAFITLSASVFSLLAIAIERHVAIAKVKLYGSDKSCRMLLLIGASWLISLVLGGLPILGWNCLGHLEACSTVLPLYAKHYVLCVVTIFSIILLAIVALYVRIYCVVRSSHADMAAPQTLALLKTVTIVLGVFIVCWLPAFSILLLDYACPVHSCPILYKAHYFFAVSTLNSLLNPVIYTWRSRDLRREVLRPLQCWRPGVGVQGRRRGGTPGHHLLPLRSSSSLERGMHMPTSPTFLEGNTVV

Row | Compound | solubility at 5 h (Solubility measurement) | IC50 (rat S1P2 (EDG-5)) | IC50 (human S1P2 (EDG-5))
1 | CCC(CC)CC1(O)CCN(C(=O)Nc2cc(F)cc(C(F)(F)F)c2)CC1 [Comparative compound A, reference compound] | < 5 µM |  | 
2 | CCC(CC)CC1(O)CCN(C(=O)Nc2cccc(Oc3ccc(F)cc3)c2)CC1 [Comparative compound B, reference compound] | < 5 µM | 27 nM | 1200 nM
3 | CS(=O)(=O)NC(=O)c1ccc(Oc2cc(NC(=O)N3CCC(O)(C4CCCC4)CC3)cc(C(F)(F)F)c2)cc1 [Example 5 (1), 4-cyclopentyl-4-hydroxy-N-[3-{4-[(methylsulphonyl)carbamoyl]phenoxy}-5-(trifluoromethyl)phenyl]-1-piperidine carboxamide] | 72 µM (≈ 41 µg/mL) | 9.4 nM | 4.6 nM
4 | O=C(Nc1cc(Oc2ccc(C3(C(=O)O)CCCC3)cc2)cc(C(F)(F)F)c1)N1CCC(O)(C2CCCCC2)C1 (stereo not shown) [Example 5 (7), 1-{4-[3-{[(3-cyclohexyl-3-hydroxy-1-pyrrolidinyl)carbonyl]amino}-5-(trifluoromethyl)phenoxy]phenyl}cyclopentanecarboxylic acid] | 74 µM (≈ 41.5 µg/mL) | 5.1 nM | 8.4 nM
5 | CC(C)CC1(O)CCN(C(=O)Nc2cc(C(=O)Oc3ccc(C(C)(C)C(=O)O)cc3)cc(C(F)(F)F)c2)CC1 [Example 8, 2-(4-{[3-{[(4-hydroxy-4-isobutyl-1-piperidinyl)carbonyl]amino}-5-(trifluoromethyl)benzoyl]oxy}phenyl)-2-methylpropanoic acid] | 90 µM (≈ 49.6 µg/mL) | 3 nM | 7.3 nM
